Test results taken from patent US6432924B1, “Method of treating disorders characterized by overexpression of cytidine deaminase or deoxycytidine deaminase” (East Carolina University, priority 1993, dated 2002).

Experiments:
[1] = test system: HT-29SF (non cytidine deaminase producing)cells; experiment: Human tumor xenograft model, HT-29SF tumor (left scapular region); assay type: in vivo, Balb/C nu/nu mice; details: 150 mg/kg twice daily intraperitoneal, 5 weeks, N=2
Experimental: (§1) One of these mice received twice daily intraperitoneal doses of 150 mg/kg of 5mAZC. The other mouse received saline only. This treatment continued for 5 weeks, at which time the animals were euthanized and the solid tumors were dissected free and weighed.

HT-29SF cells [2] = experiment: Transwell culture, 5mAZC exposure of parent cells; assay type: cell-based, human; details: quintuplicate
Experimental: (§2) HT-29SF^CD cells are a subline of HT-29SF human colonic adenocarcinoma cells that were selected for overexpression of cytidine deaminase. HT-29SF cells were plated in the bottom compartment, and HT-29SF^CD cells in the top compartment of a “Transwell” culture dish (1,000 cells each). A semipermeable membrane separates the two compartments of the Transwell, such that any drug administered in the tissue culture media bathe both compartments equally. 5-mAZC was administered continuously for 72 hrs. at the indicated concentrations. The numbers in the x-axis indicate the concentration (in μM) at which 5mAZC was administered continuously for 72 hours. The numbers on the y-axis indicate the number of surviving cells. The circular (●) data points represent the dose response for the HT-29SF^CD cells. The square (▪) data points represent the dose response for the HT-29SF cells.
HT-29SF human adenocarcinoma cells naturally express a high level of cytidine deaminase (CD). HT-29SF^CD is a subline of the HT-29SF line that express even higher CD levels than normal (about 5.4 times the expression level of HT-29SF cells). In order to see whether cells that overexpress cytidine deaminase are more sensitive to 5mAZC than other cells, HT-29SF^CD cells were plated in the top compartment of a Transwell culture dish, while HT-29SF cells were placed in the bottom compartment (1000 cells each). […]

HT-29SF cells [3] = experiment: HT-29SF subcutaneous xenograft, tumor volume on Day 29; assay type: in vivo, BALB/c nude mice
Experimental: In another experiment, thirty BALB/c nude mice received subcutaneous injections of 5×10^6 HT-29SF cells. Twelve of the animals received 600 mg/kg/day 5mAZC in the flank for 28 days. Eighteen animals received saline injections on the same schedule. On Day 29, the animals were sacrificed and the tumor volume was quantified by standard methods. The average tumor volume for the control group receiving saline was 509±292 mm . […] The results of Examples 2 and 3 show clearly that 5mAZC is activated in vitro and in vivo into molecular species exclusively toxic to tumor cells that overexpress cytidine deaminase.

HT-29SF^CD cells = experiment: Transwell culture, 5mAZC exposure of cytidine deaminase overexpressing cells; assay type: cell-based, human; details: for Number of viable cells HT-29SF^CD: quintuplicate, Transwell
Experimental: as §2
HT-29SF human adenocarcinoma cells naturally express a high level of cytidine deaminase (CD). HT-29SF^CD is a subline of the HT-29SF line that express even higher CD levels than normal (about 5.4 times the expression level of HT-29SF cells). In order to see whether cells that overexpress cytidine deaminase are more sensitive to 5mAZC than other cells, HT-29SF^CD cells were plated in the top compartment of a Transwell culture dish, while HT-29SF cells were placed in the bottom compartment (1000 cells each). A semipermeable membrane separated the two compartments of the Transwell, such that drugs administered in the tissue culture media bathe both compartments equally. 5mAZC was administered continuously for 72 hrs at concentrations ranging from 0 μM to 50 μM. The results of this experiment confirm the idea that cells that highly overexpress CD are sensitive to 5mAZC.
Based upon the results obtained in example 1 above, a dose of 50 μM 5mAZC was selected for more in-depth analysis. Two experiments were performed, in quintuplicate, in the same Transwell dishes, containing the HT-29SF cells and the HT-29SF^CD cells in compartments separated only by a membrane permeable to 5mAZC.

[4] = test system: HT-29SF^CD (cytidine deaminase producing)cells; experiment: Human tumor xenograft model, HT-29SF^CD tumor (right scapular region); assay type: in vivo, Balb/C nu/nu mice; details: 150 mg/kg twice daily intraperitoneal, 5 weeks, N=2
Experimental: as §1

[5] = Experiment 1, 50 μM 5mAZC, 1000 cells plated

Cc1cn([C@H]2C[C@H](N=[N+]=[N-])[C@@H](CO)O2)c(=O)nc1N [5mAZC, 5-methyl-2′,3′-dideoxy-3′-azidocytidine]
tumor weight HT-29SF+5mAZC [1]: 1.02 ± 0.13 g | Number of viable cells HT-29SF (HT-29SF cells [2]; [5]): 797 ± 68 | Number of viable cells HT-29SF (HT-29SF cells [2]; second experiment, 50 μM 5mAZC): 867.2 ± 29.4 | average reduction in size (tumor volume vs saline control) (HT-29SF cells [3]; 600 mg/kg/day for 28 days): 46% | average tumor volume (HT-29SF cells [3]; 600 mg/kg/day in the flank for 28 days, saline control 509±292): 273±97 mm^3 | Number of viable cells HT-29SF^CD (HT-29SF^CD cells; [5]): 33.8 ± 17.1 | sensitivity of cells that highly overexpress CD to 5mAZC (number of surviving cells, FIG. 1) (HT-29SF^CD cells; HT-29SF^CD cells, 0 μM to 50 μM continuously for 72 hrs): sensitive | Number of viable cells HT-29SF^CD (HT-29SF^CD cells; second experiment (head prints Example 2), 50 μM 5mAZC): 45.4 ± 15.6 | tumor weight HT-29SF^CD+5mAZC [4]: 0.22 g
